Experimental data published in paper PMC9120017, “Inhibition mechanism of the chloride channel TMEM16A by the pore blocker 1PBC” (Nature Communications, 2022).
Where two headings read alike, the source gives them in different places.

Target: T1, mouse TMEM16A mutant R535A (Mus musculus, UniProt Q8BHY3, R535A)
T1 construct: expressed in transfected cells; host or cells: HEK293T
T1 sequence (Q8BHY3 1-960 R535A): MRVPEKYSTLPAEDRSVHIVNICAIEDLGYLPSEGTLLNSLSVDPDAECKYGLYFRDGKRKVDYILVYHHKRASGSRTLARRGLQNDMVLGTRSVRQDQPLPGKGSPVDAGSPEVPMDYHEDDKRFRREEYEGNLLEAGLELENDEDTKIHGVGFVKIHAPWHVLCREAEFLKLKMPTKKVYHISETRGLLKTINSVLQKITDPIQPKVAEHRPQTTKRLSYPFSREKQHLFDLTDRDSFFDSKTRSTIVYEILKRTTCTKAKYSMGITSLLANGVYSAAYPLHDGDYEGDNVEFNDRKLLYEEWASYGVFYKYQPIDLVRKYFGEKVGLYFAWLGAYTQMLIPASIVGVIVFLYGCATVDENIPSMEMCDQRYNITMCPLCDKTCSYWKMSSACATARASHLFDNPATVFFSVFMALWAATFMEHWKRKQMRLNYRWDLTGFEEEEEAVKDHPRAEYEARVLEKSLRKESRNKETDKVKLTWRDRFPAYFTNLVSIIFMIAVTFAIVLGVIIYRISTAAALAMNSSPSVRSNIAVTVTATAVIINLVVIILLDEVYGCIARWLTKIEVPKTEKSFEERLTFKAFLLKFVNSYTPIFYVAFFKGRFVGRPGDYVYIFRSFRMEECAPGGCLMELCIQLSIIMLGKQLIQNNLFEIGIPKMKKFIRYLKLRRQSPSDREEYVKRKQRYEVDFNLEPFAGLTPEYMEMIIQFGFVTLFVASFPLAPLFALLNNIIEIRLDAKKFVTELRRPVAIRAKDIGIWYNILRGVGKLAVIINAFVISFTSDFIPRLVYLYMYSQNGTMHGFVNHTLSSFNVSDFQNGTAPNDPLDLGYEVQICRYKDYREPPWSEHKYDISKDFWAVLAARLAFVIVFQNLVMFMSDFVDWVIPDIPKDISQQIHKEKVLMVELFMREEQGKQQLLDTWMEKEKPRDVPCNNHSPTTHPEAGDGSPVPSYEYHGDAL
Test: Inside-out patch recording of 1PBC block, mutant R535A
Type: cell-based
Conditions: for remaining activity at 30 µM: 1PBC 30; for remaining activity at 30 µM / remaining activity at 100 µM: read-out: fraction of unblocked current; for remaining activity at 100 µM: 1PBC 100
Procedure: HEK293T cells (ATCC CRL-1573) were maintained in Dulbecco’s modified Eagle’s medium (DMEM; Sigma-Aldrich) supplemented with 10 U ml^−1 penicillin, 0.1 mg ml^−1 streptomycin (Sigma-Aldrich), 2 mM L-glutamine (Sigma-Aldrich), and 10% FBS (Sigma-Aldrich) in a humidified atmosphere containing 5% CO2 at 37 °C. HEK293S GnTI^− cells (ATCC CRL-3022) were maintained in HyClone HyCell TransFx-H medium (GE Healthcare) supplemented with 10 U ml^−1 penicillin, 0.1 mg ml^−1 streptomycin, 4 mM L-glutamine, 0.15% poloxamer 188 (Sigma-Aldrich), and 1% FBS in an atmosphere containing 5% CO2 at 185 rpm at 37 °C. The ac splice variant of mouse TMEM16A (UniProt ID: Q8BHY3), mouse TMEM16B (UniProt ID: Q8CFW1), or mouse TMEM16F (UniProt ID: Q6P9J9) bearing a 3C cleavage site, a Venus YFP, a Myc tag, and a Streptavidin-binding peptide (SBP) downstream of the open reading frame in a modified pcDNA3.1 vector (Invitrogen) were used as described previously[21],[31]. Mutations were introduced using a modified QuikChange method[58] and were verified by sequencing.
HEK293T cells were transfected with 3–4 μg DNA per 6 cm Petri dish using the calcium phosphate co-precipitation method and were used within 24–96 h after transfection. Recordings were performed on inside-out patches excised from HEK293T cells expressing the construct of interest. Patch pipettes were pulled from borosilicate glass capillaries (O.D. 1.5 mm, I.D. 0.86 mm, Sutter Instrument) and were fire-polished with a microforge (Narishige) before use. Pipette resistance was typically 3–8 MΩ when filled with the recording solutions detailed below. Seal resistance was typically 4 GΩ or higher. Voltage-clamp recordings were made using Axopatch 200B, Digidata 1550, and Clampex 10.7 (Molecular Devices). Analog signals were filtered with the in-built 4-pole Bessel filter at 10 kHz and were digitized at 20 kHz. Solution exchange was achieved using a gravity-fed system through a theta glass pipette mounted on an ultra-fast piezo-driven stepper (Siskiyou). […] All recordings were performed at 20 °C.
A symmetrical ionic condition was used throughout. Stock solution with Ca^2+-EGTA contained 150 mM NaCl, 5.99 mM Ca(OH)2, 5 mM EGTA, and 10 mM HEPES at pH 7.40. Stock solution with EGTA contained 150 mM NaCl, 5 mM EGTA, and 10 mM HEPES at pH 7.40. Free Ca^2+ concentrations were adjusted by mixing the stock solutions at the required ratios calculated using the WEBMAXC program (http://web.stanford.edu/~cpatton/webmaxcS.htm). Patch pipettes were filled with the stock solution with Ca^2+-EGTA, which has a free Ca^2+ concentration of 1 mM. 1PBC (ChemBridge) stock was reconstituted in anhydrous DMSO (Sigma-Aldrich) at 100 mM and stored at −20 °C. Working solutions with 1PBC were prepared by serial dilution. Unless otherwise stated, experiments were performed at a saturating Ca^2+ concentration as shown in Supplementary Table 1 and the primary data were corrected for current rundown as described previously[21],[25].
Concentration-response relations, obtained from the ratio of the I-V plots before and after the application of the blocker, were fitted to the Hill equation,1 I/Imax=1/1+IC50/[blocker]^h where I/Imax is the normalized current responses, IC50 defines the concentration at which inhibition is at its half-maximum, and h is the Hill coefficient.

A remaining activity at 30 µM (-60 mV) of 41.8%, a remaining activity at 30 µM (-80 mV) of 46.3% and a remaining activity at 30 µM (-100 mV) of 50.1% were found for `N#Cc1c(C(F)(F)F)cc(O)n2c1nc1ccccc12` [1PBC] in this work. The remaining activity at 30 µM (-120 mV) was 53.6%, the remaining activity at 30 µM (-140 mV) was 55.9% and the remaining activity at 100 µM (0 mV) was 10.2%. For the same compound, the remaining activity at 100 µM (20 mV) was 8.03%, the remaining activity at 100 µM (40 mV) was 6.85% and the remaining activity at 100 µM (60 mV) was 5.65%. For the same compound, the remaining activity at 100 µM (80 mV) was 5.26%, the remaining activity at 100 µM (100 mV) was 4.79% and the remaining activity at 100 µM (120 mV) was 4.05%. It also gave a remaining activity at 100 µM (140 mV) of 4.54%, a remaining activity at 100 µM (-20 mV) of 12.4% and a remaining activity at 100 µM (-40 mV) of 14.1%. The remaining activity at 100 µM (-60 mV) was 17.7%, the remaining activity at 100 µM (-80 mV) was 21.3% and the remaining activity at 100 µM (-100 mV) was 25.1%. For the same compound, the remaining activity at 100 µM (-120 mV) was 29%, the remaining activity at 100 µM (-140 mV) was 32.4% and the IC50 (20 mV, 2 µM Ca2+) was 9.48 µM. For the same compound, the IC50 (40 mV, 2 µM Ca2+) was 7.82 µM, the IC50 (60 mV, 2 µM Ca2+) was 6.65 µM and the “log-fold IC50 (change of mutant vs WT)” value (80 mV) was 0.4043. For the same compound, the IC50 (80 mV, 2 µM Ca2+) was 6.02 µM, the IC50 (100 mV, 2 µM Ca2+) was 5.51 µM and the IC50 (120 mV, 2 µM Ca2+) was 5.53 µM. It also gave an IC50 (140 mV, 2 µM Ca2+) of 5.76 µM, an IC50 (-20 mV, 2 µM Ca2+) of 14.9 µM and an IC50 (-40 mV, 2 µM Ca2+) of 17.7 µM. It also gave an IC50 (-60 mV, 2 µM Ca2+) of 21.4 µM, an IC50 (-80 mV, 2 µM Ca2+) of 25.9 µM and an IC50 (-100 mV, 2 µM Ca2+) of 30.1 µM. It also gave an IC50 (-120 mV, 2 µM Ca2+) of 35.1 µM, an IC50 (-140 mV, 2 µM Ca2+) of 38.8 µM and an IC50 (R535A, V 0 mV) of 11.9 µM. It also gave an IC50 (R535A, V 20 mV) of 9.48 µM, an IC50 (R535A, V 40 mV) of 7.82 µM and an IC50 (R535A, V 60 mV) of 6.65 µM. It also gave an IC50 (R535A, V 80 mV) of 6.02 µM, an IC50 (R535A, V 100 mV) of 5.51 µM and an IC50 (R535A, V 120 mV) of 5.53 µM. For the same compound, the IC50 (R535A, V 140 mV) was 5.76 µM, the IC50 (R535A, V -20 mV) was 14.9 µM and the IC50 (R535A, V -40 mV) was 17.7 µM. It also gave an IC50 (R535A, V -60 mV) of 21.4 µM, an IC50 (R535A, V -80 mV) of 25.9 µM and an IC50 (R535A, V -100 mV) of 30.1 µM. The IC50 (R535A, V -120 mV) was 35.1 µM and the IC50 (R535A, V -140 mV) was 38.8 µM.
